US20140127287A1, “LIPOSOME-ENCAPSULATED HYDROGELS FOR USE IN A DRUG DELIVERY SYSTEM” (Wisconsin Alumni Research Foundation (WARF), priority 2011, published 2014)

What was measured:
[1] = tested on: human prostate PC-3 cancer cells; experiment: Resazurin-based metabolic cytotoxicity assay, PC-3; type: cell-based; details: 24 hours exposure, then 24 hours in DMEM; 17-DMAPG equivalents
Protocol: (§1) For cell culture, cells were maintained at 37° C., 5% CO2 and 95% humidity in Dulbecco's modified Eagle's medium (DMEM) supplemented with 10% (v/v) heat inactivated fetal bovine serum (FBS), 2 mM L-glutamine and 100 unit/mL penicillin and 1000 μg/mL streptomycin. Cytotoxicity of 17-DMAPG loaded lipogels was assessed in human prostate PC-3 cancer cells and breast carcinoma MDA-MB-231 cells by resazurin-based metabolic assay. Briefly, cells were seeded in 96-well plates with 5,000 cells per well and allowed to adhere for 24 hours prior to the assay. Cells were exposed to various doses (0-35 μM on 17-DMAPG basis) of free 17-DMAPG, lipogel loaded 17-DMAPG and lipogel alone for 24 hours at 37° C., followed by washing with PBS, and maintaining in DMEM medium with 10% FBS for additional 24 hours. 10 μl of resazurin PBS solution (440 μM) was added into each well and incubated for a further 2 hours. The fluorescence was measured with a microplate reader (SpectraMax Gemini XS, Molecular Devices) with excitation at 560 nm and emission at 590 nm using wells without cells as blanks. […] The reading taken from the wells with cells cultured with control medium was used as 100% viability. The cell viability was calculated as Esample/Econtrol×100%. Based on the results of the test, the IC50 values were calculated on GraphPad Prism 5 Software (San Diego Calif., USA).

[2] = tested on: breast carcinoma MDA-MB-231 cells; experiment: Resazurin-based metabolic cytotoxicity assay, MDA-MB-231; type: cell-based, human; details: 24 hours exposure, then 24 hours in DMEM; 17-DMAPG equivalents
Protocol: as §1

[3] = Heat stability of 17-DMAPG during incubation, HPLC analysis; type: physicochemical; details: extended incubation at 65° C.
pKa of active agents = type: physicochemical; details: pH 6.5

heat stability (in words) [3]: heat instability
fraction protonated and positively charged (pKa of active agents): approximately 99%
Structure (SMILES): CO[C@H]1/C=C\C=C(/C)C(=O)NC2=CC(=O)C(NCCCN(C)C)=C(C[C@@H](C)C[C@H](OC)[C@H](O)[C@@H](C)/C=C(\C)[C@@H]1OC(N)=O)C2=O [17-DMAPG, 17-(dimethylaminopropylamino)-17-demethoxygeldanamycin]
IC50 [1]: 807 nM
IC50 [2]: 152 nM
